Laboratory results: patent US8236951B2, “Thioxanthine derivatives as myeloperoxidase inhibitors” (AstraZeneca AB, priority 2002, dated 2012)

biological target: T1, human MPO (Homo sapiens, UniProt P05164); experiment: MPO inhibition screen (TMB oxidation, absorbance at about 650 nM); type: biochemical; conditions: human MPO 2.5 nM, H2O2 100 μM, assay buffer pH 6.5, room temperature
T1 sequence (P05164 49-745): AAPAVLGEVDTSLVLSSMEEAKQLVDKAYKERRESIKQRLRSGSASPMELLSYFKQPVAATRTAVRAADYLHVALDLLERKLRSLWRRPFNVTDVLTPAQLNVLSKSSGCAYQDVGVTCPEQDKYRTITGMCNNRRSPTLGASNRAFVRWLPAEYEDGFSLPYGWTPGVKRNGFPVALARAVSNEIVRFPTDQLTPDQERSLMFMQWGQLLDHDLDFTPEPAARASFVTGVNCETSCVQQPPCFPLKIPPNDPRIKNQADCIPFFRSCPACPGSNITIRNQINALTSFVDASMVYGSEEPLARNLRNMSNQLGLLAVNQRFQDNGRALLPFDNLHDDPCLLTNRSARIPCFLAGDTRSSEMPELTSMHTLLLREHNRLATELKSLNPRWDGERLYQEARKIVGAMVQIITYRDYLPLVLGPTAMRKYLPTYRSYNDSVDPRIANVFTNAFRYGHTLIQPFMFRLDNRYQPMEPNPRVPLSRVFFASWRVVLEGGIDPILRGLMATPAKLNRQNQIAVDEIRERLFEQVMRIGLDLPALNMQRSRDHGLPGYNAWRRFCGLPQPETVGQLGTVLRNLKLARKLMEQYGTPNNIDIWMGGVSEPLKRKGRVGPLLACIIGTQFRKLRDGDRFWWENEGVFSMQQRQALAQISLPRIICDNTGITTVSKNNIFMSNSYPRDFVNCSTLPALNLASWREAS
Procedure: The pharmacological activity of compounds according to the invention was tested in the following screen:
Assay buffer: 20 mM sodium/potassium phosphate buffer pH 6.5 containing 10 mM taurine and 100 mM NaCl.
Then 50 μl of H202 (final concentration 100 μM), or assay buffer alone as a control, were added for 10 minutes at room temperature. […] IC50 values were then determined using standard procedures.

| IC50 [µM] | Compound |
| --- | --- |
| 0.96 | O=c1[nH]c(=S)n(CCc2ccccc2)c2nc[nH]c12 [Example 20, 3-Phenethyl-2-thioxanthine] |
| 0.51 | O=c1[nH]c(=S)n(CC2CCCO2)c2nc[nH]c12 (racemic) [Example 14, 3-(2-Tetrahydrofuryl-methyl)-2-thioxanthine] |
| 7.57 | O=c1[nH]c(=S)n(Cc2ccco2)c2nc[nH]c12 [Example 17, 3-(2-Furyl-methyl)-2-thioxanthine] |
| 2.94 | O=c1[nH]c(=S)n(CCCN2CCOCC2)c2nc[nH]c12 [Example 16, 3-(3-(1-Morpholinyl)-propyl)-2-thioxanthine] |
| 0.44 | COCCn1c(=S)[nH]c(=O)c2[nH]cnc21 [Example 15, 3-(2-Methoxy-ethyl)-2-thioxanthine] |
| 0.49 | COc1ccc(Cn2c(=S)[nH]c(=O)c3[nH]cnc32)cc1 [Example 18, 3-(4-Methoxybenzyl)-2-thioxanthine] |
| 0.87 | CC(C)Cn1c(=S)[nH]c(=O)c2[nH]cnc21 [Example 6, 3-Isobutyl-2-thioxanthine] |
| 0.53 | O=c1[nH]c(=S)n(CC2CCCCC2)c2nc[nH]c12 [Example 10, 3-Cyclohexylmethyl-2-thioxanthine] |
